Measured values: article PMC11876601 (Molecular Systems Biology, 2025)
Where two headings read alike, the source gives them in different places.

Experiments:
Suit2-07 cells = experiment: Cell proliferation assay, GEM + ATR inhibitor (Incucyte confluence, 72 h); assay type: cell-based, human; conditions: Suit2-07; for EC50: Homo sapiens, 72 h; for Response: R1; for Curve bottom / Curve top: plateau of fitted curve, ratio drug/vehicle confluence;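 for all read-outs here: Suit2-07 cells grown in 96-well plates at 37 °C, 5% CO2, raw 72 h confluence taken without normalizing to starting confluence, each experiment done in triplicate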
Method: Cells were seeded at 5000 cells/well into 96-well flat bottom plates (Eppendorf) and allowed to attach overnight. […] Cells were incubated for 72 h at 37 °C and 5% CO2. Cell confluence readouts at 72 h were either normalized to their initial confluence using the Incucyte software (AsPC-1) or used without prior normalization (all others). […] Each experiment was performed in triplicates, the data was plotted as mean ± standard deviation (s.d.).

GSK3A ; P49840 = GSK3A ; P49840 (Homo sapiens, UniProt P49840); experiment: biochemical; design: species or system AsPC-1; Kinobeads competition pulldown in AsPC-1 lysate with LC-MS/MS label-free quantification; apparent Kd
Method: (§1) This was followed by incubation with Kinobeads ε (17.5 µl of settled beads) for 30 min at 4 °C to enrich kinases. […] Enriched proteins were reduced with 50 mM DTT in 8 M urea, 40 mM Tris-HCl, pH 7.4 for 30 min at room temperature, and alkylated with 55 mM chloroacetamide. After reducing the urea concentration to 1–2 M, proteins were digested with trypsin at 37 °C for 16 h. Subsequently, eluted peptides were desalted using SepPak tC18 µElution plates (Waters), freeze-dried by vacuum centrifugation, and stored at −20 °C. Proteins were filtered by potential contaminants, reversed hits and proteins identified only by site. Residual binding of proteins was calculated from LFQ intensities as the ratio between drug doses and vehicle. […] Only kinases quantified with at least 4 unique peptides in the vehicle experiment were considered. Potential targets were further curated through manual inspection of dose-dependent reduction in MS/MS and unique peptide counts.

MAP3K1 ; Q13233 = MAP3K1 ; Q13233 (Homo sapiens, UniProt Q13233); experiment: biochemical; design: species or system AsPC-1; Kinobeads competition pulldown in AsPC-1 lysate with LC-MS/MS label-free quantification; apparent Kd
Method: as §1

CLK1 = conditions: CLK1, 5 cell line mix lysate, Kinobeads ε, ref Reinecke et al. (2023), cited from earlier work
CAMK2G = conditions: 5 cell line mix lysate, Kinobeads ε, ref Reinecke et al. (2023), cited from earlier work
RET = conditions: 5 cell line mix lysate, Kinobeads ε, ref Reinecke et al. (2023), cited from earlier work
MARK4 = conditions: MARK4, 5 cell line mix lysate, Kinobeads ε, ref Reinecke et al. (2023), cited from earlier work
MARK3 = conditions: MARK3, 5 cell line mix lysate, Kinobeads ε, ref Reinecke et al. (2023), cited from earlier work
MAP4K1 = conditions: MAP4K1, 5 cell line mix lysate, Kinobeads ε, ref Reinecke et al. (2023), cited from earlier work
MAPK10 = conditions: MAPK10, 5 cell line mix lysate, Kinobeads ε, ref Reinecke et al. (2023), cited from earlier work
BMP2K = conditions: 5 cell line mix lysate, Kinobeads ε, ref Reinecke et al. (2023), cited from earlier work
AURKB = conditions: 5 cell line mix lysate, Kinobeads ε, ref Reinecke et al. (2023), cited from earlier work
SYK = conditions: 5 cell line mix lysate, Kinobeads ε, ref Reinecke et al. (2023), cited from earlier work
MiaPaCa-2 = experiment: cells; design: ATPlite luminescence viability of PDAC cell lines, 11-dose single-agent curves, 4-parameter fit; conditions: Homo sapiens, MIA PaCa-2, 72 h, read-out: EC50 [nM]
How it was run: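 cells (1000 to 5000 per well) seeded 24 h before drug addition in a combination screen at 0.2% final DMSO. Controls were drug-free wells (negative) and 5 µM staurosporine (positive).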

[1] = experiment ATRi (ATR inhibitor alone)

Chain of MAP3K1 ; Q13233 (Q13233 whole entry): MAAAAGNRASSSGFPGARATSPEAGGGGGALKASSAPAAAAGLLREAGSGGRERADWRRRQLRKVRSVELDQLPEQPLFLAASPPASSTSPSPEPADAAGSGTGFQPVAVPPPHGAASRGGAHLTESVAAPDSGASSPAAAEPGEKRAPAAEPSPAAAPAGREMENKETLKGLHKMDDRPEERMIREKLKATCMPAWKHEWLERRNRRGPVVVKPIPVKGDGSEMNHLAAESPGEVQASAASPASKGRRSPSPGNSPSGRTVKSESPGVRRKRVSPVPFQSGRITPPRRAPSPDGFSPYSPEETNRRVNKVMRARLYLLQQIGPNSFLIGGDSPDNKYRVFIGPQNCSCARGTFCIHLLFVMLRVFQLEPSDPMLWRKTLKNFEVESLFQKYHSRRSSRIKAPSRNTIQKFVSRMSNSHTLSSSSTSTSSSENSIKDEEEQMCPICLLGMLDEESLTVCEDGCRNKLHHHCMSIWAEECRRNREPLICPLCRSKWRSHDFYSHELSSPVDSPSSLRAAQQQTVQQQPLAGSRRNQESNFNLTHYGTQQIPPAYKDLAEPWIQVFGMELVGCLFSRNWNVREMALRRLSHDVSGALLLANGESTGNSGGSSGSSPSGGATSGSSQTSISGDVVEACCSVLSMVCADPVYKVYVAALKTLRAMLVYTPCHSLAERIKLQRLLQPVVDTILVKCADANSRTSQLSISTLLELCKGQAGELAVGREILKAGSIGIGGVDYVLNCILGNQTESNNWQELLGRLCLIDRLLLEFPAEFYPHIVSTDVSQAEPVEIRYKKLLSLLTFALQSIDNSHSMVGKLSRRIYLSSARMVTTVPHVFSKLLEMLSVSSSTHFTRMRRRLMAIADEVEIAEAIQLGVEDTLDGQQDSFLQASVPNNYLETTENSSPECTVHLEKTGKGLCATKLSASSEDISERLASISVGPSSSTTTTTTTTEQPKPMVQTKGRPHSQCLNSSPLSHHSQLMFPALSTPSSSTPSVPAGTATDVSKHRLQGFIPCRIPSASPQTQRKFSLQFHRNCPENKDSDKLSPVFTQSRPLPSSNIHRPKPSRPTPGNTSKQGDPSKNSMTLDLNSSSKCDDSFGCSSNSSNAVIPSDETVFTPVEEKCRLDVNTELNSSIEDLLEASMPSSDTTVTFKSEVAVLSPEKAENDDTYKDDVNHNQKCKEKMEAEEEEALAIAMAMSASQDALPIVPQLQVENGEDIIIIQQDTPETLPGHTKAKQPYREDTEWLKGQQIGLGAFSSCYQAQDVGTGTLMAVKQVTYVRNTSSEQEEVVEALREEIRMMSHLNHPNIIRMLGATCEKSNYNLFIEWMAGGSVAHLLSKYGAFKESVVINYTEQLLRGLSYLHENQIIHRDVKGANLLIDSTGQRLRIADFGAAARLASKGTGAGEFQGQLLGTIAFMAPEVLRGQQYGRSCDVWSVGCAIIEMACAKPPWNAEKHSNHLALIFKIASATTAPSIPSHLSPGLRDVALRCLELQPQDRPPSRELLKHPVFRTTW
Chain of GSK3A ; P49840 (P49840 whole entry): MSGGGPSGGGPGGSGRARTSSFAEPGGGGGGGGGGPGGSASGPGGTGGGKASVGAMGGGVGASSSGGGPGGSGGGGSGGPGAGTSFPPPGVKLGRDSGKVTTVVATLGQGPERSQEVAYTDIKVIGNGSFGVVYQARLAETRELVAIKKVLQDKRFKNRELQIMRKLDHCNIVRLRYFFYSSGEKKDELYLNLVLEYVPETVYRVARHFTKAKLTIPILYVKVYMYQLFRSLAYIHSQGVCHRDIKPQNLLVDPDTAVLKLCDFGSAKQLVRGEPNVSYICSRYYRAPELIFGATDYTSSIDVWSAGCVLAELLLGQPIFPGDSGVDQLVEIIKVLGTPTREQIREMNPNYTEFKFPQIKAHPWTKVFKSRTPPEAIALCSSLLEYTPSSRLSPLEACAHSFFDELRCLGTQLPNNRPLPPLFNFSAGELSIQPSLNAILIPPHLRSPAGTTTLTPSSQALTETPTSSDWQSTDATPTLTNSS

CNCc1ccc(-c2cc(-c3nc(-c4ccc(S(=O)(=O)C(C)C)cc4)cnc3N)on2)cc1 [Berzosertib]
EC50 (Suit2-07 cells; experiment ATRi (ATR inhibitor alone), -log10 of EC50 [M], read-out: pEC50 (converted)): 8.32e-07 M
EC50 (Suit2-07 cells; experiment ATRi (ATR inhibitor alone), mean (one replicate), read-out: EC50 mean): 8.26e-07 M
EC50 (Suit2-07 cells; experiment ATRi (ATR inhibitor alone), replicate R1, read-out: EC50): 8.26e-07 M
Response (Suit2-07 cells; GEM+ATRi_dose1, GEM 0 nM + ATRi 10 nM, in % (unit assumed)): 98.77
Response (Suit2-07 cells; GEM+ATRi_dose1, GEM 1 nM + ATRi 10 nM, in % (unit assumed)): 98.71
Response (Suit2-07 cells; GEM+ATRi_dose1, GEM 3 nM + ATRi 10 nM, in % (unit assumed)): 96.04
Response (Suit2-07 cells; GEM+ATRi_dose1, GEM 10 nM + ATRi 10 nM, in % (unit assumed)): 36.30
Response (Suit2-07 cells; GEM+ATRi_dose1, GEM 30 nM + ATRi 10 nM, in % (unit assumed)): 15.43
Response (Suit2-07 cells; GEM+ATRi_dose1, GEM 100 nM + ATRi 10 nM, in % (unit assumed)): 14.13
Response (Suit2-07 cells; GEM+ATRi_dose1, GEM 300 nM + ATRi 10 nM, in % (unit assumed)): 12.00
Response (Suit2-07 cells; GEM+ATRi_dose1, GEM 1000 nM + ATRi 10 nM, in % (unit assumed)): 12.45
Response (Suit2-07 cells; GEM+ATRi_dose1, GEM 3000 nM + ATRi 10 nM, in % (unit assumed)): 11.51
Response (Suit2-07 cells; GEM+ATRi_dose2, GEM 0 nM + ATRi 3 nM, in % (unit assumed)): 99.37
Response (Suit2-07 cells; GEM+ATRi_dose2, GEM 1 nM + ATRi 3 nM, in % (unit assumed)): 98.07
Response (Suit2-07 cells; GEM+ATRi_dose2, GEM 3 nM + ATRi 3 nM, in % (unit assumed)): 44.64
Response (Suit2-07 cells; GEM+ATRi_dose2, GEM 10 nM + ATRi 3 nM, in % (unit assumed)): 20.67
Response (Suit2-07 cells; GEM+ATRi_dose2, GEM 30 nM + ATRi 3 nM, in % (unit assumed)): 15.78
Response (Suit2-07 cells; GEM+ATRi_dose2, GEM 100 nM + ATRi 3 nM, in % (unit assumed)): 12.95
Response (Suit2-07 cells; GEM+ATRi_dose2, GEM 300 nM + ATRi 3 nM, in % (unit assumed)): 13.27
Response (Suit2-07 cells; GEM+ATRi_dose2, GEM 1000 nM + ATRi 3 nM, in % (unit assumed)): 13.27
Response (Suit2-07 cells; GEM+ATRi_dose2, GEM 3000 nM + ATRi 3 nM, in % (unit assumed)): 11.05
Response (Suit2-07 cells; GEM+ATRi_dose3, GEM 0 nM + ATRi 30 nM, in % (unit assumed)): 92.60
Response (Suit2-07 cells; GEM+ATRi_dose3, GEM 1 nM + ATRi 30 nM, in % (unit assumed)): 79.33
Response (Suit2-07 cells; GEM+ATRi_dose3, GEM 3 nM + ATRi 30 nM, in % (unit assumed)): 33.65
Response (Suit2-07 cells; GEM+ATRi_dose3, GEM 10 nM + ATRi 30 nM, in % (unit assumed)): 15.80
Response (Suit2-07 cells; GEM+ATRi_dose3, GEM 30 nM + ATRi 30 nM): 15.08
Response (Suit2-07 cells; GEM+ATRi_dose3, GEM 100 nM + ATRi 30 nM, in % (unit assumed)): 13.63
Response (Suit2-07 cells; GEM+ATRi_dose3, GEM 300 nM + ATRi 30 nM, in % (unit assumed)): 12.25
Response (Suit2-07 cells; GEM+ATRi_dose3, GEM 1000 nM + ATRi 30 nM, in % (unit assumed)): 9.74
Response (Suit2-07 cells; GEM+ATRi_dose3, GEM 3000 nM + ATRi 30 nM, in % (unit assumed)): 10.10
Curve bottom (Suit2-07 cells; [1]): 1.01
Curve top (Suit2-07 cells; [1]): 0.09
Response (Suit2-07 cells; experiment ATRi, ATRi 3 nM, GEM 0 nM, in % (unit assumed)): 98.72
Response (Suit2-07 cells; experiment ATRi, ATRi 10 nM, GEM 0 nM, in % (unit assumed)): 98.54
Response (Suit2-07 cells; experiment ATRi, ATRi 30 nM, GEM 0 nM, in % (unit assumed)): 98.42
Response (Suit2-07 cells; experiment ATRi, ATRi 100 nM, GEM 0 nM, in % (unit assumed)): 98.94
Response (Suit2-07 cells; experiment ATRi, ATRi 300 nM, GEM 0 nM, in % (unit assumed)): 89.08
Response (Suit2-07 cells; experiment ATRi, ATRi 1000 nM, GEM 0 nM, in % (unit assumed)): 45.00
Response (Suit2-07 cells; experiment ATRi, ATRi 3000 nM, GEM 0 nM, in % (unit assumed)): 16.95
Response (Suit2-07 cells; experiment ATRi, ATRi 10000 nM, GEM 0 nM, in % (unit assumed)): 8.62
Curve bottom (Suit2-07 cells; experiment GEM+ATRi_dose1): 1.01
Curve top (Suit2-07 cells; experiment GEM+ATRi_dose1): 0.13
Curve bottom (Suit2-07 cells; experiment GEM+ATRi_dose2): 1.03
Curve top (Suit2-07 cells; experiment GEM+ATRi_dose2): 0.15
Curve bottom (Suit2-07 cells; experiment GEM+ATRi_dose3): 0.95
Curve top (Suit2-07 cells; experiment GEM+ATRi_dose3): 0.13
Kd (GSK3A ; P49840): 0.0397 µM
Kd (MAP3K1 ; Q13233): 0.0116 µM

COc1cc(N2CCC(N3CCN(C)CC3)CC2)ccc1Nc1ncc(Cl)c(Nc2ccccc2P(C)(C)=O)n1 [Brigatinib]
EC50 (CLK1): 0.0131 µM
pKDapp (CLK1): 8.03
Kd (CLK1; read-out: KDapp): 0.00935 µM
Kd (CAMK2G; read-out: KDapp): 0.0932 µM
EC50 (CAMK2G): 0.429 µM
pKDapp (CAMK2G): 7.03
Kd (RET; read-out: KDapp): 0.125 µM
EC50 (RET): 0.283 µM
pKDapp (RET): 6.90
EC50 (MARK4): 0.232 µM
pKDapp (MARK4): 6.71
Kd (MARK4; read-out: KDapp): 0.193 µM
EC50 (MARK3): 0.25 µM
pKDapp (MARK3): 6.71
Kd (MARK3; read-out: KDapp): 0.193 µM
EC50 (MAP4K1): 0.716 µM
pKDapp (MAP4K1): 6.28
Kd (MAP4K1; read-out: KDapp): 0.52 µM
EC50 (MAPK10): 0.789 µM
pKDapp (MAPK10): 6.18
Kd (MAPK10; read-out: KDapp): 0.663 µM
Kd (BMP2K; read-out: KDapp): 0.999 µM
EC50 (BMP2K): 1.51 µM
pKDapp (BMP2K): 6.00
Kd (AURKB; read-out: KDapp): 1.08 µM
EC50 (AURKB): 1.85 µM
pKDapp (AURKB): 5.97
Kd (SYK; read-out: KDapp): 1.57 µM
EC50 (SYK): 1.87 µM
pKDapp (SYK): 5.81
EC50 (MiaPaCa-2): 177 nM
